Source: ChEMBL document CHEMBL1144036, “Bornyl (3,4,5-trihydroxy)-cinnamate--an optimized human neutrophil elastase inhibitor designed by free energy calculations” (Bioorg Med Chem, 2008)

Molecular target: T1, Neutrophil elastase (Homo sapiens, UniProt P08246)
T1 sequence (P08246 whole entry): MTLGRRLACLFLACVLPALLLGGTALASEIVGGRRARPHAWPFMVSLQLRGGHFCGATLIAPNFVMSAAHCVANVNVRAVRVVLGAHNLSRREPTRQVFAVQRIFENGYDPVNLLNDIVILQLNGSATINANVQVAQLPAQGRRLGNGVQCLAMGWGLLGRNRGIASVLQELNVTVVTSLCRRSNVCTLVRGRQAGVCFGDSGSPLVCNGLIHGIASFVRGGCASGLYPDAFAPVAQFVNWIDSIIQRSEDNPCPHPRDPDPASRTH
Assay: Inhibition of human neutrophil elastase

IC50 [nM] | Structure (SMILES)
1560 | CC1(C)C2CC[C@]1(C)C(OC(=O)/C=C/c1ccc(O)c(O)c1)C2 (some centres not stated)
540 | CC1(C)C2CC[C@]1(C)C(OC(=O)/C=C/c1cc(O)c(O)c(O)c1)C2 (some centres not stated)
